The target of this assay is AcrB (Escherichia coli, UniProt P31224). Briefly: isothermal titration calorimetry (ITC). The assay is classed as binding. In general terms: ITC needs no label: the signal is the heat of the interaction.

Each structure is given as a SMILES string. Like-named read-outs stand apart in the source and are kept apart here.

Sequence of AcrB (P31224 whole entry): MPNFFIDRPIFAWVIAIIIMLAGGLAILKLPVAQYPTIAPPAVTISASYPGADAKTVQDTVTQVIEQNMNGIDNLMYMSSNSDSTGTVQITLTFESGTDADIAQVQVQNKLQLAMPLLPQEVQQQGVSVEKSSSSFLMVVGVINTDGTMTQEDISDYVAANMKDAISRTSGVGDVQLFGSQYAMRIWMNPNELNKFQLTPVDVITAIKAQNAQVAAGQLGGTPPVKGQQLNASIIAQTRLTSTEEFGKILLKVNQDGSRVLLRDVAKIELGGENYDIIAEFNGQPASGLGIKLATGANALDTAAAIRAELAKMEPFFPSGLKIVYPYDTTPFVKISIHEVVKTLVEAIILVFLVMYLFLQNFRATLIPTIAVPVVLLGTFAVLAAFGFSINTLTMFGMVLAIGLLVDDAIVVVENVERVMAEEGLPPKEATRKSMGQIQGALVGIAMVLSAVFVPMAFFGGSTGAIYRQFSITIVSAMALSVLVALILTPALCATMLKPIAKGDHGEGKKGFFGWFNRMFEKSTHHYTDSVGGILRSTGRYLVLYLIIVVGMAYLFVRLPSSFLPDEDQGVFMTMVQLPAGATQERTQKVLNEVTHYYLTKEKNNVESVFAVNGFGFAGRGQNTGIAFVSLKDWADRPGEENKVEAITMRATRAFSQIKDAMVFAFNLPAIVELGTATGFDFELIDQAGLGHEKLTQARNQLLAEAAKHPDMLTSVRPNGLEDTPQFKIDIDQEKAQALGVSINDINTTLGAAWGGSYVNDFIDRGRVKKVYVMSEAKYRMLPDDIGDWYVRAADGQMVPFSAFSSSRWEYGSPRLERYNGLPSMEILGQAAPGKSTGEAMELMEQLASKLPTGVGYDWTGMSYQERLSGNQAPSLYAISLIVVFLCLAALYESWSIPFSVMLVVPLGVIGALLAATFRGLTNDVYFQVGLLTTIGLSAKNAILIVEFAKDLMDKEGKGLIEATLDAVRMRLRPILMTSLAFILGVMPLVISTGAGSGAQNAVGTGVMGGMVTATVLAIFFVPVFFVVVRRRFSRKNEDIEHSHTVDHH

In the case of `OC(COc1ccc(Cl)c(Cl)c1)CN1CCC(Nc2nccc(C(F)(F)F)n2)CC1` (stereo not drawn) [EPM35], the Kd (commonly the equilibrium constant for the complex coming apart) was found to be 290 ± 30 nM.
For `CC(C)(C)c1nc(NC(=N)N)sc1Br` [EPM30], for the setting “read-out: KD”, the Kd amounted to 1790 ± 370 nM.
On the same count and under the same terms, the result for `Cc1ccc(Sc2cccc3nc(N)nc(N)c23)cc1` [EPM43] reads 560 ± 60 nM.

The values above are taken from PMC6007937, “A cell-based infection assay identifies efflux pump modulators that reduce bacterial intracellular load” (PLoS Pathogens, 2018).
